Laboratory results published in patent US10414759B2, “Phenylthiazoles and uses thereof” (Purdue Research Foundation, priority 2017, dated 2019).
Converted amounts (≈) assume the structure as drawn. Read-outs that look alike come from different tables or passages of the source.

Columns and labels:
[1] = test system: VRSA10; assay: MIC/MBC clinical isolate panel (Table 3); type: cell-based, S. aureus; settings: Staphylococcus aureus, Table 3, VRSA10
Method: MRSA clinical isolates, and vancomycin-resistant Staphylococcus aureus (VRSA) strain were obtained through the Network of Antimicrobial Resistance in Staphylococcus aureus (NARSA) program. In addition, vancomycin-resistant Enterococcus faecium (VRE) strain was obtained from the ATCC. Bacteria were cultured in cation-adjusted Mueller Hinton broth in a 96-well plate. Compounds, using triplicate samples, were added to the plate and serially diluted. […] Plates were visually inspected and the MIC was categorized as the concentration at which no visible growth of bacteria was observed. The average of triplicate MIC determinations is reported.
The minimum inhibitory concentration (MIC) of tested compounds and control antibiotics were determined using the broth microdilution method in accordance with the recommendations contained in the Clinical and Laboratory Standards Institute guidelines, against methicillin-sensitive (ATCC 6538 and NRS107), methicillin-resistant (MRSA), and vancomycin-resistant (VRSA) Staphylococcus aureus, Staphylococcus epidermidis, Enterococcus faecalis, E. faecium, Listeria monocytogenes, and Streptococcus pneumoniae clinical isolates. A bacterial solution equivalent to 0.5 McFarland standard was prepared and diluted in cation-adjusted Mueller-Hinton broth (CAMHB) to achieve a bacterial concentration of about 5×10^5 CFU/mL and seeded in 96-well plates. Enterococcus faecium was diluted in brain heart infusion broth. Enterococcus faecalis, Streptococcus pneumonia and Listeria monocytogenes were diluted in tryptone soya broth (TSB). Compounds and control drugs were added in the first row of 96-well plates and serially diluted (to achieve a concentration gradient ranging from 128 to 1 μg/mL). Plates were then incubated aerobically at 37° C. for at least 18 hours. The minimum bactericidal concentration (MBC) of the active compounds was tested by plating 5 μL from wells with no growth onto Tryptic soy agar (TSA) plates.

[2] = test system: human keratinocytes (HaCaT); assay: In vitro cytotoxicity against HaCaT (MTS); type: cell-based; settings: 2 h incubation
Method: Compound 17 was assayed at concentrations of 8, 16, 32, 64, 128, and 256 μg/mL against an immortal keratinocyte cell line (HaCaT) in order to determine the potential toxic effect against mammalian cells in vitro. Cells were cultured in Dulbeco's modified Eagle's medium (Sigma-Aldrich, St. Louis, Mo., USA) with 10% fetal bovine serum (USA Scientific, Inc.) at 37° C. with 5% CO2. Controls received DMSO alone at a concentration equal to that in drug-treated cell samples. The cells were incubated with the compounds in a 96-well plate at 37° C. and 5.0% CO2 for 2 h prior to addition of the assay reagent MTS 3-(4,5-dimethylthiazol-2-yl)-5-(3-carboxymethoxyphenyl)-2-(4-sulfophenyl)-2H-tetrazolium) (Promega, Madison, Wis., USA). Corrected absorbance readings (actual absorbance readings for each treatment […]) were taken using a kinetic ELISA microplate reader (Molecular Devices, Sunnyvale, Calif., USA). The quantity of viable cells after treatment with each compound is expressed as a percentage of the control, DMSO.

[3] = Metabolic stability in human liver microsomes; type: in vitro ADME; settings: pH 7.4, human liver microsomes
Method: The tested compounds were incubated in duplicate with human liver microsomes at 37° C. The reaction contained microsomal protein in 100 mM potassium phosphate, 2 mM NADPH, 3 mM MgCl2, pH 7.4. A control was run for each test agent omitting NADPH to detect NADPH-free degradation. At 0, 10, 20, 40, and 60 minutes, an aliquot was removed from each experimental and control reaction and mixed with an equal volume of ice-cold Stop Solution (methanol containing haloperidol, diclofenac, or other internal standard). Stopped reactions are incubated at least ten minutes at −20° C., and an additional volume of water was added. The samples were centrifuged to remove precipitated protein, and the supernatants were analyzed by LC/MS/MS to quantitate the remaining parent. Data are converted to % remaining by dividing by the time zero concentration value. Data are fit to a first-order decay model to determine half-life. Intrinsic clearance is calculated from the half-life and the protein concentrations: CLint=ln(2)/(T1/2 [microsomal protein]).

[4] = PBS solubility screen (turbidometric); type: physicochemical; settings: aqueous buffer, kinetic from dmso stock
Method: The solutions were diluted 100-fold into PBS in a 96-well plate and mixed. The absorbance of the PBS-containing plate was measured prior to addition of the test agents to determine the background absorbance. After 2 h, the presence of precipitate was detected by turbidity (absorbance at 540 nm). […] The solubility limit is reported as the highest experimental concentration with no evidence of turbidity.

- MIC ([1]; read-out: MIC): 1 µg/mL (≈ 2.95 µM)
- microsomal CLint ([3]; NADPH omitted, read-out: NADPH-free Clint): 0.5 µL/min/mg
- half-life ([3]; NADPH omitted, read-out: NADPH-free t1/2): > 1 h
- microsomal CLint ([3]; with NADPH, read-out: NADPH-dependent CLint): 3 to 7.5 µL/min/mg
- half-life ([3]; with NADPH, read-out: NADPH-dependent t1/2): 5.13 h
- solubility at 2 h [4]: 55 µM (≈ 18.7 µg/mL)
Structure (SMILES): CCCCc1ccc(-c2nc(C)c(-c3ccnc(NN)n3)s2)cc1 [Compound 17, 2-(4-Butylphenyl)-5-(2-hydrazinopyrimidin-4-yl)-4-methylthiazole]
- MBC ([1]; read-out: MBC): 2 µg/mL (≈ 5.89 µM)
- nontoxic up to a concentration of [2]: 64 µg/mL
